Biological target: T1, full-length human Mineralocorticoid Receptor (MR) (Homo sapiens, UniProt P08235)
T1 construct: host or cells: PathHunter CHO-K1 MR cells
T1 sequence (P08235 1-984): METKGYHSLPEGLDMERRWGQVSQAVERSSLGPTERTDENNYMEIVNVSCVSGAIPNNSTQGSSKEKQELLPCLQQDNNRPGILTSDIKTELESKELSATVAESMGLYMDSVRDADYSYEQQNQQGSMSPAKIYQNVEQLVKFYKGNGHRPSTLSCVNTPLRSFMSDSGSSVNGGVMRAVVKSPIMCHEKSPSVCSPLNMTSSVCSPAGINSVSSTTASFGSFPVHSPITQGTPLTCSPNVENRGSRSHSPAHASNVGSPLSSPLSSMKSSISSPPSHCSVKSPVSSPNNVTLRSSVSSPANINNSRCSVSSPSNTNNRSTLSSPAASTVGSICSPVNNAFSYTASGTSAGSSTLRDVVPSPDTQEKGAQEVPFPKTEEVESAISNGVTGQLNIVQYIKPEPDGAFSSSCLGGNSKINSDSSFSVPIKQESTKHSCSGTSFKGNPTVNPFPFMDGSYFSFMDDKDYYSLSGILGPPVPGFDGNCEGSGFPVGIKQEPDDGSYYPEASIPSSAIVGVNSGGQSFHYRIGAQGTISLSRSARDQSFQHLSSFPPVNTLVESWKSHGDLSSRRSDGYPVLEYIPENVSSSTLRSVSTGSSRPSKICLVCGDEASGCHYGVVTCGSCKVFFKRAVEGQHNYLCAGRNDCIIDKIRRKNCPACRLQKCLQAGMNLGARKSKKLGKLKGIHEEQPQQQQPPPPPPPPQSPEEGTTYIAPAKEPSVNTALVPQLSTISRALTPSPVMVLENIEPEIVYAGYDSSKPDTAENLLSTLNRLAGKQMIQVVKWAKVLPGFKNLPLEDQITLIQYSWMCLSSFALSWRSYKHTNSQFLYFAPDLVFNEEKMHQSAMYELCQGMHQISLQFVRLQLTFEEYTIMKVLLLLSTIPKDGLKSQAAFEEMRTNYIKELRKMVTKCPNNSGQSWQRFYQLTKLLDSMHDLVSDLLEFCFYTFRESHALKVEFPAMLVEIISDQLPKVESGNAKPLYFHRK
Assay: human MR NH Pro assay (PathHunter Protein:Protein interaction assay), MR antagonism
Assay type: cell-based
Conditions: IP = inflection point of the dose-response curve; CHO-K1 cells overexpressing human MR, aldosterone about 0.3 nM to about 1 nM, 6 hours at 37° C.
Text: The activity of the compounds of the present invention regarding mineralocorticoid receptor antagonism can be evaluated using the following assay.
Assessment of MR Potency in HMR NH Pro Assay
The human MR NH Pro assay is a commercially available PathHunter™ Protein:Protein interaction assay (DiscoveRx; http://www.discoverx.com/nhrs/prod-nhrs.php) that measures the ability of compounds to antagonize full-length human Mineralocorticoid Receptor (MR) binding to a coactivator peptide.
Stock solution was prepared at 10 μM in DMSO and stored at −20° C. for assay, dilute in assay media to 1.8 or 6 nM (6× of final concentration=about 0.3 nM to about 1.0 nM)
5. Cell line: PathHunter CHO-K1 MR cells Cat #93-0456C2, Lot No: 09B0913, from operation liquid nitrogen stock.
6. Control Antagonist: Spironolactone: Sigma #S-3378 and Eplerenone Sigma #107724-20-9 (10 mM stock concentration also prepared in DMSO and stored at −20° C.).
1. Cells are grown in F12+FBS+Hygromycin+pen/strep+Genetin
2. Cells are collected with 0.05% trypsin and the cell suspension is spun and resuspended in a volume of F12+1.5% CD-FBS and counted.
3. The cells concentration was adjusted to 4×10^5 cells/mL.
4. Cells were (25 μL/well) added to the wells of a 384 well plate.
5. The plate was then incubated at 37° C. over night in a humidified incubator with 5% CO2.
6. Test compounds were titrated starting at 4.4 mM, 10-point titration in 1:3 dilution.
Protocol for 384 well plate format: 6 hr treatment:
1. 10K exponentially growing cells/well (25 μL) were resuspended in assay media and plated into each well using the Multidrop (Thermo Electron) (use white wall, clear bottom assay plates (Costar #3570) and incubated overnight at 37° C., 5% CO2.
2. 0.25 μL 120× test compound (final DMSO concentration should be <1%) was added to each well n=2, 10 point titrations starting at 36.7 μM final concentration.
4. 5 μL of assay media was added to all wells in column 23 and 24.
5. Cells were then incubated for 6 hrs at 37° C., 5% CO2.
6. 15 μL 3× DiscoveRx detection reagent was then added to each well.
7. Plates were incubated for 1 hour at room temperature in the dark.
8. Plates were read on Envision (PerkinElmer) luminesence plate reader and analyzed using ADA.

Q: With `CCC(O)C(CC)(c1ccc(S(F)(F)(F)(F)F)cc1)n1ncc2c(NS(C)(=O)=O)cccc21` (single isomer, unassigned) [Compound 25, N-(1-{4-hydroxy-3-[4-(pentafluoro-λ^6-sulfanyl)phenyl]hexan-3-yl}-1H-indazol-4-yl)methanesulfonamide] as the molecule, how does the IC50 read?
A: 48 nM

Q: `CCC(O)C(CC(F)F)(c1ccc(C(F)(F)F)cc1)n1ncc2c(NS(=O)(=O)CC)cccc21` (single isomer, unassigned) [Compound 56, N-(1-(1,1-difluoro-4-hydroxy-3-(4-(trifluoromethyl)phenyl)hexan-3-yl)-1H-indazol-4-yl)ethanesulfonamide] was tested. Which IC50 did it give?
A: 10 nM

Q: With `CCC(O)C(CC)(c1ccc(Br)cc1)n1ncc2c(NS(C)(=O)=O)cccc21` (single isomer, unassigned) [Compound 5, N-(1-(3-(4-bromophenyl)-4-hydroxyhexan-3-yl)-1H-indazol-4-yl)methanesulfonamide] as the molecule, how does the IC50 read?
A: 8 nM

Q: For `CCC(O)C(CC(F)F)(c1ccc(C(F)(F)F)cc1)n1ncc2c(NS(C)(=O)=O)cccc21` (single isomer, unassigned) [Compound 39, N-(1-(1,1-difluoro-4-hydroxy-3-(4-(trifluoromethyl)phenyl)hexan-3-yl)-1H-indazol-4-yl)methanesulfonamide], which IC50 is on record?
A: 23 nM

Q: `CCC(c1ccc(C(F)(F)F)cc1)(C(O)C(F)F)n1ncc2c(NS(=O)(=O)CC)cccc21` (single isomer, unassigned) [Compound 49, N-(1-(1,1-difluoro-2-hydroxy-3-(4-(trifluoromethyl)phenyl)pentan-3-yl)-1H-indazol-4-yl)ethanesulfonamide] was tested. Which IC50 did it give?
A: 7 nM

Q: With `CCC(c1ccc(C(F)(F)F)cc1)(C(O)C(F)F)n1ncc2c(NS(C)(=O)=O)cc(F)cc21` (single isomer, unassigned) [Compound 51, N-(1-(1,1-difluoro-2-hydroxy-3-(4-(trifluoromethyl)phenyl)pentan-3-yl)-6-fluoro-1H-indazol-4-yl) methanesulfonamide] as the molecule, how does the IC50 read?
A: 13 nM

Q: How did the IC50 turn out when `CCC(O)C(CC)(c1ccc(Br)cc1)n1ncc2c(NS(C)(=O)=O)cccc21` (single isomer, unassigned) [Compound 7, N-(1-(3-(4-bromophenyl)-4-hydroxyhexan-3-yl)-1H-indazol-4-yl)methanesulfonamide] was run?
A: 1990 nM

Q: `CCC(c1ccc(Br)cc1)(C(C)O)n1ncc2c(NS(C)(=O)=O)cccc21` (single isomer, unassigned) [Compound 4, N-(1-(3-(4-bromophenyl)-2-hydroxypentan-3-yl)-1H-indazol-4-yl) methanesulfonamide] was tested. Which IC50 did it give?
A: 728 nM

Q: Which IC50 does the source give for `CCC(c1ccc(C(F)(F)F)cc1)(C(C)O)n1ncc2c(NS(C)(=O)=O)cc(F)cc21` (single isomer, unassigned) [Compound 34, N-(6-fluoro-1-(2-hydroxy-3-(4-(trifluoromethyl)phenyl)pentan-3-yl)-1H-indazol-4-yl)methanesulfonamide] here?
A: 1140 nM

Q: Which IC50 does the source give for `CCC(O)C(CC)(c1ccc(C(F)(F)F)cc1)n1ncc2c(NS(C)(=O)=O)cc(F)cc21` (single isomer, unassigned) [Compound 17, N-(6-fluoro-1-(4-hydroxy-3-(4-(trifluoromethyl)phenyl)hexan-3-yl)-1H-indazol-4-yl)methanesulfonamide] here?
A: 21 nM

Q: With `CCC(O)C(CC)(c1ccc(C#N)cc1)n1ncc2c(NS(C)(=O)=O)cccc21` (single isomer, unassigned) [Compound 15, N-(1-(3-(4-cyanophenyl)-4-hydroxyhexan-3-yl)-1H-indazol-4-yl)methanesulfonamide] as the molecule, how does the IC50 read?
A: 56 nM

Q: `CC(O)C(CC(F)F)(c1ccc(C(F)(F)F)cc1)n1ncc2c(NS(C)(=O)=O)cccc21` (single isomer, unassigned) [Compound 38, N-(1-(1,1-difluoro-4-hydroxy-3-(4-(trifluoromethyl)phenyl)pentan-3-yl)-1H-indazol-4-yl)methanesulfonamide] was tested. Which IC50 did it give?
A: 596 nM

Q: How did the IC50 turn out when `CCC(c1ccc(C(F)(F)F)cc1)(C(C)O)n1ncc2c(NS(C)(=O)=O)cc(F)cc21` (single isomer, unassigned) [Compound 32, N-(6-fluoro-1-(2-hydroxy-3-(4-(trifluoromethyl)phenyl)pentan-3-yl)-1H-indazol-4-yl)methanesulfonamide] was run?
A: 27 nM

Q: With `CCC(c1ccc(C(F)(F)F)cc1)(C(O)C(F)F)n1ncc2c(NS(=O)(=O)CC)cc(F)cc21` (single isomer, unassigned) [Compound 54, N-(1-(1,1-difluoro-2-hydroxy-3-(4-(trifluoromethyl)phenyl)pentan-3-yl)-6-fluoro-1H-indazol-4-l)ethanesulfonamide] as the molecule, how does the IC50 read?
A: 12 nM

Q: Which IC50 does the source give for `CCC(c1ccc(C(F)(F)F)cc1)(C(O)C(F)F)n1ncc2c(NS(C)(=O)=O)cc(F)cc21` (single isomer, unassigned) [Compound 52, N-(1-(1,1-difluoro-2-hydroxy-3-(4-(trifluoromethyl)phenyl)pentan-3-yl)-6-fluoro-1H-indazol-4-l) methanesulfonamide] here?
A: 28 nM

Q: With `CCC(O)C(CC)(c1ccc(Br)cc1)n1ncc2c(NS(C)(=O)=O)cccc21` (single isomer, unassigned) [Compound 6, N-(1-(3-(4-bromophenyl)-4-hydroxyhexan-3-yl)-1H-indazol-4-yl)methanesulfonamide] as the molecule, how does the IC50 read?
A: 3 nM

Q: With `CCC(c1ccc(Br)cc1)(C(C)O)n1ncc2c(NS(C)(=O)=O)cccc21` (single isomer, unassigned) [Compound 3, N-(1-(3-(4-bromophenyl)-2-hydroxypentan-3-yl)-1H-indazol-4-yl) methanesulfonamide] as the molecule, how does the IC50 read?
A: 733 nM

Q: For `CCC(c1ccc(C(F)(F)F)cc1)(C(O)C(F)F)n1ncc2c(NS(=O)(=O)CC)cc(F)cc21` (single isomer, unassigned) [Compound 53, N-(1-(1,1-difluoro-2-hydroxy-3-(4-(trifluoromethyl)phenyl)pentan-3-yl)-6-fluoro-1H-indazol-4-yl)ethanesulfonamide], which IC50 is on record?
A: 11 nM

Q: With `CS(=O)(=O)Nc1cccc2c1cnn2C(CO)(CC(F)F)c1ccc(C(F)(F)F)cc1` (single isomer, unassigned) [Compound 43, N-(1-(4,4-difluoro-1-hydroxy-2-(4-(trifluoromethyl)phenyl)butan-2-yl)-1H-indazol-4-yl)methanesulfonamide] as the molecule, how does the IC50 read?
A: 388 nM

Q: How did the IC50 turn out when `CCC(CO)(c1ccc(C(F)(F)F)cc1)n1ncc2c(NS(C)(=O)=O)cccc21` (single isomer, unassigned) [Compound 11, N-(1-(1-hydroxy-2-(4-(trifluoromethyl)phenyl)butan-2-yl)-1H-indazol-4-yl)methanesulfonamide] was run?
A: 60 nM

Q: Which IC50 does the source give for `CCC(O)C(CC(F)F)(c1ccc(C(F)(F)F)cc1)n1ncc2c(NS(C)(=O)=O)cccc21` (single isomer, unassigned) [Compound 42, N-(1-(1,1-difluoro-4-hydroxy-3-(4-(trifluoromethyl)phenyl)hexan-3-yl)-1H-indazol-4-yl)methanesulfonamide] here?
A: 1370 nM
